# Reference: the supplement of paper PMC10307832
# Tests used:
# Assay in all cases: relative viability (nuclei count vs DMSO), 5 days (fraction); higher = more cells survive
# [1] = compound: CN(C/C=C/C1=CC=C(C=C1)Cl)CC2=CC=CC=C2N(CCO)S(=O)(=O)C3=CC=C(C=C3)OC [KN-93] + Cc1nc(NC(=O)N2CCC[C@H]2C(N)=O)sc1-c1ccnc(C(C)(C)C(F)(F)F)c1 [Alpelisib] (partner 2 µM)
# Method in brief: (§1)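 Medians of duplicate plates are given as relative viability. That measure is the nuclei count in treated wells divided by the count in vehicle wells. Counts were taken on 4× images of lung cancer cell lines in 1536-well plates, 5 days after pin-tool dosing the day after seeding with one drug alone or a fixed anchor-drug dose plus five library-drug doses (not always all listed) in √10 steps.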
# [2] = compound: CN(C/C=C/C1=CC=C(C=C1)Cl)CC2=CC=CC=C2N(CCO)S(=O)(=O)C3=CC=C(C=C3)OC [KN-93] + CC(C)C[C@H](NC(=O)[C@H](Cc1ccccc1)NC(=O)c1cnccn1)B(O)O [Bortezomib] (partner 0.002 µM)
# Method in brief: as §1
# [3] = compound: CN(C/C=C/C1=CC=C(C=C1)Cl)CC2=CC=CC=C2N(CCO)S(=O)(=O)C3=CC=C(C=C3)OC [KN-93] + CS(=O)(=O)N1CCN(Cc2cc3nc(-c4cccc5[nH]ncc45)nc(N4CCOCC4)c3s2)CC1 [Pictilisib] (partner 1 µM)
# Method in brief: as §1
# [4] = compound: CN(C/C=C/C1=CC=C(C=C1)Cl)CC2=CC=CC=C2N(CCO)S(=O)(=O)C3=CC=C(C=C3)OC [KN-93] + C[C@@H](Oc1cc(-c2cnn(C3CCNCC3)c2)cnc1N)c1c(Cl)ccc(F)c1Cl [Crizotinib] (partner 1 µM)
# Method in brief: as §1
# [5] = compound: CN(C/C=C/C1=CC=C(C=C1)Cl)CC2=CC=CC=C2N(CCO)S(=O)(=O)C3=CC=C(C=C3)OC [KN-93] + C[C@]1(O)C[C@@H](c2nc(-c3ccc4ccc(-c5ccccc5)nc4c3)c3c(N)nccn32)C1 [Linsitinib] (partner 1 µM)
# Method in brief: as §1
Cell Line,relative viability ([1]; first compound 0.08 µM),relative viability ([1]; first compound 0.253 µM),relative viability ([1]; first compound 2.53 µM),relative viability ([1]; first compound 8 µM),relative viability ([2]; first compound 0.08 µM),relative viability ([2]; first compound 0.253 µM),relative viability ([2]; first compound 2.53 µM),relative viability ([2]; first compound 8 µM),relative viability ([3]; first compound 0.08 µM),relative viability ([3]; first compound 0.253 µM),relative viability ([3]; first compound 2.53 µM),relative viability ([3]; first compound 8 µM),relative viability ([4]; first compound 0.08 µM),relative viability ([4]; first compound 0.253 µM),relative viability ([4]; first compound 2.53 µM),relative viability ([4]; first compound 8 µM),relative viability ([5]; first compound 0.08 µM),relative viability ([5]; first compound 0.253 µM),relative viability ([5]; first compound 2.53 µM),relative viability ([5]; first compound 8 µM)
NCI-H23,0.592,0.702,1.01,0.596,0.878,1.07,1.14,0.893,0.414,0.559,0.58,0.446,0.446,0.54,0.574,0.534,0.522,0.617,0.659,0.53
NCI-H322M,0.873,1.06,0.836,0.686,1.36,1.21,1.29,1.14,0.496,0.423,0.531,0.51,1.08,0.982,0.896,0.905,0.988,0.935,0.958,0.803
NCI-H441,,1.18,0.772,0.341,,0.672,0.365,0.22,0.356,0.53,0.591,0.3,0.716,0.879,0.76,0.565,0.48,0.818,0.799,0.245
NCI-H460,0.47,0.649,0.42,0.203,0.813,1.93,,0.717,0.301,0.329,0.465,0.117,0.387,0.985,1.33,0.449,0.466,1.14,0.805,0.375
